Data published in US12146889B1, “Compounds and combinations thereof for treating neurological and psychiatric conditions” (priority 2022, dated 2024).
Structures can show the parent of a compound that is named as a salt. Where two headings read alike, the source gives them in different places.

Key:
[1] = pharmacokinetics in moderate hepatic impairment; type: in vivo, human; details: for AUC0-12 and Cmax in moderate hepatic impairment compared with healthy patients: Group 2; for AUC Change Relative to Reference (90% CI); mean ratio of AUC0-12 / Cmax Change Relative to Reference (90% CI); mean ratio of Cmax: Moderate Hepatic Impairment (Group 2), GMR vs matched healthy subjects, after 8 days of twice daily dosing, hydrobromide monohydrate
[2] = pharmacokinetics in moderate renal impairment
Source text: (§1) Data are GMRs and 90% CIs. References used are the matched healthy subjects for renal and hepatic impairment studies, and extensive or ultra-extensive CYP2D6 metabolizers respectively.

[3] = solubility of the powder in water
[4] = bupropion and its metabolites; cited from earlier work
[5] = pharmacokinetics in CYP2D6 poor metabolizers
Source text: Approximately 7% to 10% of Caucasians and 3% to 8% of African Americans lack the capacity to metabolize CYP2D6 substrates and are classified as poor metabolizers.
as §1

[6] = co-administration with strong CYP2D6 inhibitor (paroxetine)
[7] = pharmacokinetics of the subject combination at steady state; details: co-administered with bupropion
[8] = effect of food on pharmacokinetics of the subject combination
[9] = test system: patients with treatment-resistant depression or MDD; details: cited from earlier work
[10] = test system: patients with treatment-resistant depression or MDD; details: cited from earlier work; remark: listed apart in the source
[11] = 3 poor metabolizers, subject combination
[12] = 20 mg of paroxetine, tablet of Example 4 twice daily, vs tablet twice daily without paroxetine
[13] = 7 subjects with moderate (GFR 30-60 mL/min) renal impairment vs 6 matched controls
[14] = patients having moderate renal impairment, tablets of Example 4
[15] = flexible-dose study, patients ≥65 years with treatment-resistant depression, 28 to 84 mg + oral AD, N = 72

CC(NC(C)(C)C)C(=O)c1cccc(Cl)c1.Cl (racemic) [bupropion, (±)-1-(3-chlorophenyl)-2-[(1,1-dimethylethyl)amino]-1-propanone hydrochloride]
AUC0-12 and Cmax in moderate hepatic impairment compared with healthy patients [1]: not significantly different | increase in AUC0-12 in moderate renal impairment ([2]; human, in vivo): 1.80 fold | increase in Cmax in moderate renal impairment ([2]; human, in vivo): 1.87 fold | increase of exposure in moderate renal impairment vs matched controls with normal renal function ([2]; human, in vivo): approximately 2 fold | reduction of clearance in moderate renal impairment vs matched controls ([2]; human, in vivo): 50% | solubility in water [3]: highly soluble in water | presence in human milk [4]: presence of bupropion and its metabolites in human milk

COc1ccc2c(c1)[C@]13CCCC[C@@H]1[C@H](C2)N(C)CC3 [dextromethorphan, morphinan, 3-methoxy-17-methyl-, (9α, 13α, 14α), hydrobromide monohydrate]
increase in AUC0-12 in poor metabolizers compared to extensive metabolizers [5, 11]: ~3.4 fold | increase in Cmax in poor metabolizers compared to extensive metabolizers [5, 11]: ~3 fold | steady state plasma concentrations in poor metabolizers vs non-poor metabolizers ([5]; 12 poor metabolizers treated with the subject combination in efficacy trials): generally higher than exposures for non-poor metabolizers | plasma concentrations in CYP2D6 poor metabolizers compared to patients who are not CYP2D6 poor metabolizers ([5]; subject composition): increases plasma concentrations of dextromethorphan | AUC0-12 and Cmax in moderate hepatic impairment compared with healthy patients [1]: not significantly different | AUC Change Relative to Reference (90% CI); mean ratio of AUC0-12 [1]: 1.17 | Cmax Change Relative to Reference (90% CI); mean ratio of Cmax [1]: 1.21 | AUC Change Relative to Reference (90% CI); mean ratio of AUC0-12 ([1]; listed as DM): 1.17 (0.85, 1.61) | Cmax Change Relative to Reference (90% CI); mean ratio of Cmax ([1]; listed as DM): 1.21 (0.90, 1.62) | increase of AUC0-12 with concomitant paroxetine [6, 12]: 2.69 fold | increase of Cmax with concomitant paroxetine [6, 12]: 2.38 fold | increase of overall exposure by paroxetine ([6]; co-administration of paroxetine and the subject combination, 29 healthy volunteers): 2.5 fold | plasma concentrations on concomitant use of the subject combination with strong CYP2D6 inhibitor ([6]; in vivo): increases plasma concentrations of dextromethorphan | increase of exposure in moderate renal impairment vs matched controls with normal renal function [2, 13]: approximately 2 fold | reduction of clearance in moderate renal impairment vs matched controls [2, 13]: 50% | increase in AUC0-12 in moderate renal impairment [2, 14]: 2.21 fold | increase in Cmax in moderate renal impairment [2, 14]: 2.10 fold | dose proportionality of changes in AUC and Cmax at steady state ([7]; varying doses of bupropion (75 to 150 mg)): less than dose-proportional changes | dose proportionality of changes in AUC and Cmax at steady state ([7]; varying doses of dextromethorphan (30 to 60 mg)): greater than dose-proportional changes | solubility in water [3]: sparingly soluble in water | decrease of AUC0-12 when administered with food [8]: 14%

CN[C@]1(c2ccccc2Cl)CCCCC1=O [esketamine, Esketamine]
Incidence of Sedation (MOAA/S score <5) ([9]; fixed-dose study, patients <65 years with treatment-resistant depression, 56 mg + oral AD, N = 114): 50% | Incidence of Sedation (MOAA/S score <5) ([9]; fixed-dose study, patients <65 years with treatment-resistant depression, 84 mg + oral AD, N = 114): 61% | Incidence of Sedation (MOAA/S score <5) [9, 15]: 49% | Incidence of Dissociation (CADSS total score >4 and change >0) ([10]; fixed-dose study, patients <65 years with treatment-resistant depression, 56 mg + oral AD, N = 113): 61% | Incidence of Dissociation (CADSS total score >4 and change >0) ([10]; fixed-dose study, patients <65 years with treatment-resistant depression, 84 mg + oral AD, N = 116): 69% | Incidence of Dissociation (CADSS total score >4 and change >0) [10, 15]: 75%
